Measured values: patent US8343953B2, “Pharmaceutical compounds” (Astex Therapeutics Limited, priority 2005, dated 2013)

Key:
P70S6 kinase (T412E) = target: T1, P70S6 kinase (T412E) (Homo sapiens, UniProt P23443, T412E); assay: P70s6 radiometric assay; assay type: biochemical; settings: ATP approximately 15 μM; enzyme 2 nM; read-out: IC50 (anti-P70S6K activity)
T1 construct: purchased Upstate 14-486
Experimental: P7086 enzyme is bought from Upstate and used at 2 nM in the assay.
In the phosphoryl transfer reaction, the ^33P-γ phosphate from ATP is transferred to the serine residue. The reaction mixture is transferred to a phosphocellulose filter plate where the peptide binds and the unused ATP is washed away. After washing, scintillant is added and the incorporated activity measured by scintillation counting.
S6 kinase substrate cocktail from Upstate (#20-122)
• 10 mM MOPS pH 7.0 • 0.1 mg/ml BSA • 0.001% Brij-35 • 0.5% glycerol • 0.2 mM EDTA • 10 mM MgCl2 • 0.01% β-mercaptoethanol • Made as a 10× stock, stored at […] in 2 ml aliquots • 15 μM ATP
ATP will break down over time, keep on ice as far as possible and use small aliquots to ensure the stock is fresh. • γ^33P-ATP APBiotech (BF1000) • 12.5% orthophosphoric acid • 0.5% orthophosphoric acid • Microscint 20 (Packard) Assay Preparation • Enzyme mix (per 1 ml—100 assay points): • 743.75 μl H2O • […] • 3.75 μl 10 mM ATP • 2.5 μl enzyme • Substrate mix (per 1 ml—100 assay points): • 250 μl S6 cocktail substrate • 750 μl H2O • 3.5 μl ^33P-ATP (BF1000 from APBiotech)
Compounds—prepare a dilution curve in DMSO in a polypropylene 96 well plate to 40× final assay concentration (final DMSO 2.5%).
In a polypropylene 96 well plate add in order: • 5 μl compound • 10 μl substrate mix • 10 μl enzyme mix
Final ATP concentration is approximately 15 μM. KM for ATP calculated to 47 uM radiometrically. Controls are “no compound” (DMSO only) and “no enzyme” (use 10 μl of the enzyme mix prior to adding enzyme). Cover with a plate seal (TopSeal A—Packard) or plastic lid from filter plate (moderate radiation barrier). Mix by gentle shaking. Incubate at room temperature for 50 minutes. Stop the reaction by adding 20 μl of 2% orthophosphoric acid.
Pre-wet the wells of a Millipore MAPH NOB plate with 50 μl of 0.5% orthophosphoric acid wash buffer. Filter the liquid through on a Millipore vacuum filtration unit. Transfer the whole of the stopped reaction to the wells. Filter through. Wash twice with 200 μl of 0.5% orthophosphoric acid wash buffer. Vacuum to near dryness. Remove the plate support and allow to the filters to dry further on tissue paper. Snap the plate into an adapter for the Packard TopCount. Add 20 μl of Microscint 20 scintillant, seal with a sheet of Topseal A and count for 30 s on the TopCount.
The compounds of examples 4, 13, 21, 22, 23, 42, 47, 71, 84, 85 and 98 were tested for anti-P70S6K activity (assay as described above): […]

ROCK-II (h) = ROCK-II (h) (Homo sapiens, UniProt O75116); assay: ROCK-II (h) assay (radiometric, 33P-ATP filtermat); assay type: biochemical; settings: read-out: IC50 (anti-ROCK-II activity)
Experimental: ROCK-II (h) Assay Protocol
In a final reaction volume of 25 μl, ROCK-II (h) (5-10 mU) is incubated with 50 mM Tris pH 7.5, 0.1 mM EGTA, 30 μM […], 10 mM MgAcetate and [γ-^33P-ATP] (specific activity approx. 500 cpm/pmol, concentration as required). The reaction is initiated by the addition of the MgATP mix. After incubation for 40 minutes at room temperature, the reaction is stopped by the addition of 5 μl of a 3% phosphoric acid solution. 10 μl of the reaction is then spotted onto a P30 filtermat and washed three times for 5 minutes in 75 mM phosphoric acid and once in methanol prior to drying and scintillation counting.
The compounds of examples 14, 22, 23, 57, 59 and 84 were tested for anti-ROCK-II activity (assay as described above): […]

rat MM1 hepatoma cells = settings: cited from earlier work
MM1 cells = settings: continuous delivery using osmotic pumps; syngeneic rats; cited from earlier work
[1] = test system: isolated rabbit urinary bladder smooth muscle; settings: cited from earlier work

T1 sequence (P23443 1-421 T412E limits assumed): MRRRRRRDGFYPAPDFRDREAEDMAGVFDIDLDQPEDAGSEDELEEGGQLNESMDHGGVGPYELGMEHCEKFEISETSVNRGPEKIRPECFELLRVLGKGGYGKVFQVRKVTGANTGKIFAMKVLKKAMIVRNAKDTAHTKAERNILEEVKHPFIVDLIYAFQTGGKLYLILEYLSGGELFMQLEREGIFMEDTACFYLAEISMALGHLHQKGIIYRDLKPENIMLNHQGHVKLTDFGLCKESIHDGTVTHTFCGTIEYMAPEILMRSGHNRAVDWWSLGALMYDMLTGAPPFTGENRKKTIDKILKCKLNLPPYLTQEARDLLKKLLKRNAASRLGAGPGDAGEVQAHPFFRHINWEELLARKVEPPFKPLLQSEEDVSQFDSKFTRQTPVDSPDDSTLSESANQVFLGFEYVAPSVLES
Chain of ROCK-II (h) (O75116 whole entry): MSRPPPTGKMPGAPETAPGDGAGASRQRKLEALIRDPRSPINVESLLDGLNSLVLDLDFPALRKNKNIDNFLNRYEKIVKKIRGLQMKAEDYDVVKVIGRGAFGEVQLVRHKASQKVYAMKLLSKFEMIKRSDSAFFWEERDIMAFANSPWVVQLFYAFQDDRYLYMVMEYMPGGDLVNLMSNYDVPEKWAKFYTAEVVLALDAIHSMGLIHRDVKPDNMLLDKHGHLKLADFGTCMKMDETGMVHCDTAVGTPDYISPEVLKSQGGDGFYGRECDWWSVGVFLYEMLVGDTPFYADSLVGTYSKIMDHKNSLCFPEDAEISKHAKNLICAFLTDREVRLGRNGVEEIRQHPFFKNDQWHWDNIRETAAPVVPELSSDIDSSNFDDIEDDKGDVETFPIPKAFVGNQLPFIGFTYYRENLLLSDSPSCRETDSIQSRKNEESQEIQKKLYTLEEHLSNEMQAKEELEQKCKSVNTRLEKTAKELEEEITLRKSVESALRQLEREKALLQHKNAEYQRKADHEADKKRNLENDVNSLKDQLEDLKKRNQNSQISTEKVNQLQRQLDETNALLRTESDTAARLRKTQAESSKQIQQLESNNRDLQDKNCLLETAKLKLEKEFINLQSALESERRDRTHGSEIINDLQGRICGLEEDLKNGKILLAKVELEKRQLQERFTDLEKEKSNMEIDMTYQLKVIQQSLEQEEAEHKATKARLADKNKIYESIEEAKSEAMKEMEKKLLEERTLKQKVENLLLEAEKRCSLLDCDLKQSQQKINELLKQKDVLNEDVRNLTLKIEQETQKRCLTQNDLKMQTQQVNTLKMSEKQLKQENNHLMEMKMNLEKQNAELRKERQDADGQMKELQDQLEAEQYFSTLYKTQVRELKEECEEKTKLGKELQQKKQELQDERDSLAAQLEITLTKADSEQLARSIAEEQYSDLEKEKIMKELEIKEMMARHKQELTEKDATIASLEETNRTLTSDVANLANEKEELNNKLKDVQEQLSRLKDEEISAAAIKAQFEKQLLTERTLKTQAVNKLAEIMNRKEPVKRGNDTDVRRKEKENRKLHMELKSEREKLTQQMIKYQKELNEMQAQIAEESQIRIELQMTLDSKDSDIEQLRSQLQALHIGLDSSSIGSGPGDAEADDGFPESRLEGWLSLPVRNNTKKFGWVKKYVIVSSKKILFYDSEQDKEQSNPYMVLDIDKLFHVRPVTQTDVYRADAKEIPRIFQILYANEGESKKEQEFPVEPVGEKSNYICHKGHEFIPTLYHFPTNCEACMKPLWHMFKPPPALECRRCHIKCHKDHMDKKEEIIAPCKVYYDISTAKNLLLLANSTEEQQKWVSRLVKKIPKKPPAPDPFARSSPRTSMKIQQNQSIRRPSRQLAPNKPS

| IC50 (P70S6 kinase (T412E)) [nM] | IC50 (ROCK-II (h)) [nM] | Compound | also measured |
| --- | --- | --- | --- |
| < 100 |  | NCC(c1ccc(Cl)cc1)c1ccc(-c2cn[nH]c2)cc1 (stereo not drawn) [Example 4, 2-(4-Chloro-phenyl)-2-[4-(1H-pyrazol-4-yl)-phenyl]-ethylamine] |  |
| < 100 |  | NCCC(c1ccc(-c2cn[nH]c2)cc1)c1ccc(Cl)c(Cl)c1 (stereo not drawn) [Example 13, 3-(3,4-Dichloro-phenyl)-3-[4-(1H-pyrazol-4-yl)-phenyl]-propylamine] |  |
|  | < 100 | Clc1ccc(C2(c3ccc(-c4cn[nH]c4)cc3)CCNCC2)cc1 [Example 14, 4-(4-Chloro-phenyl)-4-[4-(1H-pyrazol-4-yl)-phenyl]-piperidine] |  |
| < 100 |  | CNCC(c1ccc(Cl)cc1)c1ccc(-c2cn[nH]c2)cc1 (stereo not drawn) [Example 21, {2-(4-Chloro-phenyl)-2-[4-(1H-pyrazol-4-yl)-phenyl]-ethyl}-methyl-amine] |  |
| < 100 | < 100 | CNC[C@@H](c1ccc(Cl)cc1)c1ccc(-c2cn[nH]c2)cc1 [Example 22, {2-(4-Chloro-phenyl)-2-[4-(1H-pyrazol-4-yl)-phenyl]-ethyl}-methyl-amine (R)] |  |
| < 100 | < 100 | CNC[C@H](c1ccc(Cl)cc1)c1ccc(-c2cn[nH]c2)cc1 [Example 23, {2-(4-Chloro-phenyl)-2-[4-(1H-pyrazol-4-yl)-phenyl]-ethyl}-methyl-amine (S)] |  |
| < 100 |  | CNCC(c1ccc(Cl)cc1)c1ccc(-c2cn[nH]c2)cc1 (stereo not drawn) [Example 42, {2-(4-Chloro-phenyl)-2-[4-(1H-pyrazol-4-yl)-phenyl]-ethyl}-methyl-amine] |  |
| < 100 |  | CNCC(c1ccc(Oc2cnccn2)cc1)c1ccc(-c2cn[nH]c2)cc1 (stereo not drawn) [Example 47, Methyl-{2-[4-(pyrazin-2-yloxy)-phenyl]-2-[4-(1H-pyrazol-4-yl)-phenyl]-ethyl}-amine] |  |
|  | < 100 | Clc1ccc(C(c2ccc(-c3cn[nH]c3)cc2)N2CCNCC2)cc1 (stereo not drawn) [Example 57, 1-{(4-Chloro-phenyl)-[4-(1H-pyrazol-4-yl)-phenyl]-methyl}-piperazine] |  |
|  | < 100 | CNCCC(Oc1cccc(Cl)c1)c1ccc(-c2cn[nH]c2)cc1 (stereo not drawn) [Example 59, {3-(3-Chloro-phenoxy)-3-[4-(1H-pyrazol-4-yl)-phenyl]-propyl}-methyl-amine] |  |
| < 100 |  | CNCC(Oc1ccc(Cl)cc1)c1ccc(-c2cn[nH]c2)cc1 (stereo not drawn) [Example 71, {2-(4-Chloro-phenoxy)-2-[4-(1H-pyrazol-4-yl)-phenyl]-ethyl}-methyl-amine] |  |
| < 100 | < 100 | NCC(O)(c1ccc(Cl)cc1)c1ccc(-c2cn[nH]c2)cc1 (stereo not drawn) [Example 84, 2-Amino-1-(4-chloro-phenyl)-1-[4-(1H-pyrazol-4-yl)-phenyl]-ethanol] |  |
| < 100 |  | Clc1ccc(C2(c3ccc(-c4cn[nH]c4)cc3)CCNCC2)cc1Cl [Example 85, 4-(3,4-Dichloro-phenyl)-4-[4-(1H-pyrazol-4-yl)-phenyl]-piperidine] |  |
| < 100 |  | NCC(c1ccc(-c2cn[nH]c2)cc1)c1ccc(Cl)c(Cl)c1 (stereo not drawn) [Example 98, 2-(3,4-Dichloro-phenyl)-2-[4-(1H-pyrazol-4-yl)-phenyl]-ethylamine] |  |
|  |  | C[C@@H](N)[C@H]1CC[C@H](C(=O)Nc2ccncc2)CC1 [Example Y-27632] | Rho-mediated activation of actomyosin (rat MM1 hepatoma cells): blocked; invasive activity of MM1 cells (rat MM1 hepatoma cells): blocked; dissemination of MM1 cells (MM1 cells): considerably reduced; bethanechol-evoked contractions [1]: attenuates |
